Biological target: V1 receptor (Rattus norvegicus, UniProt P30560)
Experiment: biochemical
Type: binding
Conditions: not given

V1 receptor, sequence (P30560 whole entry): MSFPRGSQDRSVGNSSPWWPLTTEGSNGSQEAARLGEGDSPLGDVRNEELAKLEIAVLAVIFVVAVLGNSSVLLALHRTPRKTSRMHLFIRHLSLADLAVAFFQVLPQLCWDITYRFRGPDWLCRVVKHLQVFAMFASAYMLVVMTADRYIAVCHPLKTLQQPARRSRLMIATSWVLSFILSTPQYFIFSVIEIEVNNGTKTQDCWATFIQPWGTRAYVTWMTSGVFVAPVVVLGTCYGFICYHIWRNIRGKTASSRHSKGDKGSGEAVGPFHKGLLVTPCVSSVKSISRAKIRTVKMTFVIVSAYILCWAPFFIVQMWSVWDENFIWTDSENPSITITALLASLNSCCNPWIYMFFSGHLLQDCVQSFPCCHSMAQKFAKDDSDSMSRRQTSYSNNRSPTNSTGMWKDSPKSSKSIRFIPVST

Row | SMILES | IC50 [µM]
1 | O=C(c1ccc(OCCCCCCC(O)CN2CCCC2)cc1)N1CCC(N2C(=O)CCc3ccccc32)CC1 (stereo not shown) [Example 206, 1-(1-[4-(7-Hydroxy-8-(1-pyrrolidinyl)octyloxy)benzoyl]-4-piperidinyl)-3,4-dihydrocarbostyril] | 0.03
2 | CC(=O)NCC(=O)NCCCOc1ccc(C(=O)N2CCC(N3C(=O)CCc4ccccc43)CC2)cc1 [Example 181, 1-{1-[4-(3-Acetylaminoacetylaminopropoxy)benzoyl]-4-piperidinyl}-3,4-dihydrocarbostyril] | 0.23
3 | O=C(c1ccc(OCCCC(O)CN2CCCC2)cc1)N1CCC(N2C(=O)CCc3ccccc32)CC1 (stereo not shown) [Example 186, 1-{1-[4-(4-Hydroxy-5-(1-pyrrolidinyl)pentyloxy)benzoyl]-4-piperidinyl}-3,4-dihydrocarbostyril] | 0.063
4 | O=C(c1ccc(OCCCNCc2ccccc2)cc1)N1CCC(N2C(=O)CCc3ccccc32)CC1 [Example 18, 1-{1-[4-(3-Benzylaminopropoxy)benzoyl]-4-piperidinyl}-3,4-dihydrocarbostyril] | 0.27
5 | O=C(c1ccc(Oc2ccccc2)cc1)N1CCC(N2C(=O)CCc3ccccc32)CC1 [Example 45, 1-[1-(4-Phenyloxybenzoyl)-4-piperidinyl]-3,4-dihydrocarbostyril] | 0.2
6 | CCN(CC)CCCCCCCOc1ccc(C(=O)N2CCC(N3C(=O)CCc4ccccc43)CC2)cc1 [Example 268, 1-{1-(4-[7-(Diethylamino)heptyloxy]benzoyl)-4-piperidinyl}-3,4-dihydrocarbostyril] | 0.027
7 | O=C(OCCCOc1ccc(C(=O)N2CCC(N3C(=O)CCc4ccccc43)CC2)cc1)c1ccccc1 [Example 94, 1-{1-[4-(3-Benzoyloxypropoxy)benzoyl]-4-piperidinyl}-3,4-dihydrocarbostyril] | 0.63
8 | CCS(=O)(=O)CCCOc1ccc(C(=O)N2CCC(N3C(=O)CCc4ccccc43)CC2)cc1 [Example 143, 1-{1-[4-(3-Ethylsulfonylpropoxy)benzoyl]-4-piperidinyl}-3,4-dihydrocarbostyril] | 0.55
9 | CC(=O)NCC(O)CCCCOc1ccc(C(=O)N2CCC(N3C(=O)CCc4ccccc43)CC2)cc1 (stereo not shown) [Example 177, 1-{1-[4-(5-Hydroxy-6-acetylaminohexyloxy)-benzoyl]-4-piperidinyl}-3,4-dihydrocarbostyril] | 0.13
10 | CN(CCC#N)CCCCCOc1ccc(C(=O)N2CCC(N3C(=O)CCc4ccccc43)CC2)cc1 [Example 247, 1-{1-(4-[5-(N-(2-Cyanoethyl)-N-methylamino)pentyloxy]benzoyl)-4-piperidinyl}-3,4-dihydrocarbostyril] | 0.17
11 | CSCC[C@H](NC(=O)CCCCCOc1ccc(C(=O)N2CCC(N3C(=O)CCc4ccccc43)CC2)cc1)C(N)=O [Example 153, 1-{1-[4-(5-[1-(S)-Carbamoyl-3-(methylthio)]propylaminocarbonylpentyloxy)benzoyl]-4-piperidinyl}-3,4-dihydrocarbostyril] | 0.084
12 | CS(=O)(=O)NCCCCOc1ccc(C(=O)N2CCC(N3C(=O)CCc4ccccc43)CC2)cc1 [Example 28, 1-{1-[4-(4-Methylsulfonylaminobutoxy)benzoyl]-4-piperidinyl}-3,4-dihydrocarbostyril] | 0.16
13 | O=C(CCCCCOc1ccc(C(=O)N2CCC(N3C(=O)CCc4ccccc43)CC2)cc1)NC1CCN(Cc2ccccc2)CC1 [Example 200, 1-{1-[4-(5-(1-Benzyl-4-piperidinyl)aminocarbonylpentyloxy)benzoyl]-4-piperidinyl}-3,4-dihydrocarbostyril] | 0.034
14 | NC(=O)OCCCCOc1ccc(C(=O)N2CCC(N3C(=O)CCc4ccccc43)CC2)cc1 [Example 38, 1-{1-[4-(4-Carbamoyloxybutoxy)benzoyl]-4-piperidinyl}-3,4-dihydrocarbostyril] | 0.27
15 | CN(CCO)CC(=O)NCCCCCOc1ccc(C(=O)N2CCC(N3C(=O)CCc4ccccc43)CC2)cc1 [Example 257, 1-{1-(4-[5-(2-(N-(2-Hydroxyethyl)-N-methylamino)acetylamino)pentyloxy]benzoyl)-4-piperidinyl}-3,4-dihydrocarbostyril] | 0.2
16 | CN(CCCCCCOc1ccc(C(=O)N2CCC(N3C(=O)CCc4ccccc43)CC2)cc1)CCc1ccccn1 [Example 266, 1-{1-(4-[6-(N-(2-(2-Pyridyl)ethyl)-N-methylamino)hexyloxy]benzoyl)-4-piperidinyl}-3,4-dihydrocarbostyril] | 0.035
17 | C=CCOc1ccc(C(=O)N2CCC(N3C(=O)CCc4ccccc43)CC2)cc1 [Example 44, 1-[1-(4-Allyloxybenzoyl)-4-piperidinyl]-3,4-dihydrocarbostyril] | 0.3
18 | CC(=O)N[C@@H](CCC(N)=O)C(=O)NCCCOc1ccc(C(=O)N2CCC(N3C(=O)CCc4ccccc43)CC2)cc1 [Example 195, 1-(1-[4-(3-(α-N-Acetyl-(L)-glutaminyl)aminopropoxy)benzoyl]-4-piperidinyl}-3,4-dihydrocarbostyril] | 0.19

Row | SMILES | IC50 [µM]
19 | CN1CCN(C(=O)CCCCCOc2ccc(C(=O)N3CCC(N4C(=O)CCc5ccccc54)CC3)cc2)CC1 [Example 272, 1-{1-(4-[5-(4-Methyl-1-piperazinylcarbonyl)pentyloxy]benzoyl)-4-piperidinyl}-3,4-dihydrocarbostyril] | 0.038
20 | O=C(c1ccc(OCCCCCS(=O)(=O)c2ccccn2)cc1)N1CCC(N2C(=O)CCc3ccccc32)CC1 [Example 287, 1-{1-(4-[5-(2-Pyridylsulfonyl)pentyloxy]benzoyl)-4-piperidinyl}-3,4-dihydrocarbostyril] | 0.1
21 | CCOC(=O)NCCCOc1ccc(C(=O)N2CCC(N3C(=O)CCc4ccccc43)CC2)cc1 [Example 168, 1-{1-[4-(3-Ethoxycarbonylaminopropoxy)benzoyl]-4-piperidinyl}-3,4-dihydrocarbostyril] | 0.19
22 | CCSc1nccn1-c1ccc(C(=O)N2CCC(N3C(=O)CCc4ccccc43)CC2)cc1 [Example 89, 1-{1-[4-(2-Ethylthioimidazol-1-yl)benzoyl]-4-piperidinyl)-3,4-dihydrocarbostyril] | 1.6
23 | COc1ccc(CNCC(O)CCCCOc2ccc(C(=O)N3CCC(N4C(=O)CCc5ccccc54)CC3)cc2)cc1OC (stereo not shown) [Example 299, 1-{1-(4-[5-Hydroxy-6-(3,4-dimethoxybenzylamino)hexyloxy]benzoyl)-4-piperidinyl}-3,4-dihydrocarbostyril.oxalate] | 0.065
24 | COc1ccc(C(=O)N2CCC(N3C(=O)CCc4ccccc43)CC2)c(OCCCOC(N)=O)c1 [Example 65, 1-{1-[2-(3-Carbamoyloxypropoxy)-4-methoxybenzoyl]-4-piperidinyl}-3,4-dihydrocarbostyril] | 0.27
25 | COc1ccc(C(=O)N2CCC(N3C(=O)CCc4ccccc43)CC2)c(OC(C)=O)c1 [Example 61, 1-[1-(2-Acetoxy-4-methoxybenzoyl)-4-piperidinyl]-3,4-dihydrocarbostyril] | 0.3
26 | CC(=O)OCCCCCOc1ccc(C(=O)N2CCC(N3C(=O)CCc4ccccc43)CC2)cc1 [Example 39, 1-{1-[4-(5-Acetoxypentyloxy)benzoyl]-4-piperidinyl}-3,4-dihydrocarbostyril] | 0.15
27 | O=C(c1ccc(OCCCCCS(=O)(=O)c2cc[n+]([O-])cc2)cc1)N1CCC(N2C(=O)CCc3ccccc32)CC1 [Example 288, 1-{1-(4-[5-(Pyridine-N-oxide-4-ylsulfonyl)pentyloxy]benzoyl)-4-piperidinyl}-3,4-dihydrocarbostyril] | 0.048
28 | O=C(c1ccc(OCCCCC(O)CN2CCC(Cc3ccccc3)CC2)cc1)N1CCC(N2C(=O)CCc3ccccc32)CC1 (stereo not shown) [Example 304, 1-{1-(4-[5-Hydroxy-6-(4-benzyl-1-piperidinyl)hexyloxy]benzoyl]-piperidinyl}-3,4-dihydrocarbostyril] | 0.037
29 | O=C(CCCCCOc1ccc(C(=O)N2CCC(N3C(=O)CCc4ccccc43)CC2)cc1)NC1CCNCC1 [Example 210, 1-{1-[4-(5-(4-Piperidinyl)aminocarbonylpentyloxy)benzoyl]-4-piperidinyl}-3,4-dihydrocarbostyril] | 0.023
30 | CC(=O)OCCCCCCOc1ccc(C(=O)N2CCC(N3C(=O)CCc4ccccc43)CC2)cc1 [Example 130, 1-{1-[4-(6-Acetoxyhexyloxy)benzoyl]-4-piperidinyl}-3,4-dihydrocarbostyril] | 0.39
31 | CCOc1ccc(C(=O)N2CCC(N3C(=O)CCc4c(O)cccc43)CC2)c(OC)c1 [Example 308, 5-Hydroxy-1-[1-(2-methoxy-4-ethoxybenzoyl)-4-piperidinyl}-3,4-dihydrocarbostyril] | 0.095
32 | NC(=O)CNC(=O)CCCCCOc1ccc(C(=O)N2CCC(N3C(=O)CCc4ccccc43)CC2)cc1 [Example 14, 1-{1-[4-(5-Carbamoylmethylaminocarbonylpentyloxy)benzoyl]-4-piperidinyl}-3,4-dihydrocarbostyril] | 0.16
33 | CC[S+]([O-])CCCOc1ccc(C(=O)N2CCC(N3C(=O)CCc4ccccc43)CC2)cc1 (stereo not shown) [Example 127, 1-{1-[4-(Ethylsulfinylpropoxy)benzoyl]-4-piperidinyl}-3,4-dihydrocarbostyril] | 0.61
34 | CN(CCO)CC(O)CCCCOc1ccc(C(=O)N2CCC(N3C(=O)CCc4ccccc43)CC2)cc1 (stereo not shown) [Example 204, 1-{1-[4-(5-Hydroxy-6-[N-(2-hydroxyethyl)-N-methylamino]hexyloxy)benzoyl]-4-piperidinyl}-3,4-dihydrocarbostyril] | 0.059
35 | COCCOc1cc(OC)ccc1C(=O)N1CCC(N2C(=O)CCc3ccccc32)CC1 [Example 70, 1-{1-[2-(2-Methoxyethoxy)-4-methoxybenzoyl]-4-piperidinyl}-3,4-dihydrocarbostyril] | 0.32

Same assay, conditions: [H]3-Arg-vasopressin 2×10^-10 M, rat liver plasma membrane, 37° C., 10 minutes, pH 8.0

Row | SMILES | IC50 [µM]
36 | COc1ccc(C(=O)N2CCC(N3C(=O)CCc4ccccc43)C(C)C2)c(OC)c1 (stereo not shown) [Example 118, 1-[3-Methyl-1-(2,4-dimethoxycarbonyl)-4-piperidinyl]-3,4-dihydrocarbostyril] | 0.26

Same assay, conditions: read-out: IC50

Row | SMILES | IC50 [µM]
37 | CCOc1ccc(C(=O)N2CCC(n3c(=O)ccc4ccccc43)CC2)c(OC)c1 [Example 82, 1-[1-(2-Methoxy-4-ethoxybenzoyl)-4-piperidinyl]carbostyril] | 0.33
